In PubChem BioAssay AID1918999 (Molecular Pharmacology Branch, DTP, NCI, 2023):

Tested on: 556581-035-R-J1-PDC complex spheroid growth
Experiment: Anticancer human tumor 556581-035-R-J1-PDC patient-derived ovarian carcinoma cell line growth inhibition [AhR]
Settings: for IC50: curve of first compound; for viability, T/C: stronger effect = lower value
Description: Multicellular complex tumor spheroid response to aryl hydrocarbon receptor antagonists in combination with a variety of drugs and investigational agents in selected tumor cell lines
The current study was undertaken to assess response to aryl hydrocarbon receptor antagonists in combination with standard-of-care drugs and investigational agents in solid tumor complex spheroid models. Complex spheroids include a stromal component modeled by human endothelial cells (HUVEC) and fibroblasts modeled by human mesenchymal stem cells (MSCs). The concentration ranges selected for each drug and investigational agent were based upon clinically achievable concentrations if the clinical Cmax of the agent was known.
Compounds. The drugs and investigational agents: BAY 2416964 (NSC825713), GNF351 (NSC835774), CH-223191 (NSC835775), CPI-455 (NSC825282), aza-TdCyd (NSC777586), decitabine (NSC127716), belinostat (NSC758774), entinostat (NSC756642), pevonedistat (NSC761192), tazemetostat (NSC777109), talazoparib (NSC765396), olaparib (NSC753686), selinexor (NSC780203), nedisertib (M3814, NSC802822), bortezomib (NSC756655), venetoclax (NSC766270), doxorubicin (NSC123127), elimusertib (BAY189344, NSC800525), ceralasertib (AZD6738, NSC777638), TAK-243 (NSC785004), alisertib (NSC759677), etoposide (NSC141540), topotecan (NSC609699), eribulin (NSC707389), gemcitabine (NSC613327), carboplatin (NSC241240), cisplatin (NSC119875), and SN-38 (NSC673596) were obtained from the National Cancer Institute (NCI) Developmental Therapeutics Program Chemical Repository (32). The FDA-approved anticancer drug set is available from the Developmental Therapeutics Program at https://dtp.cancer.gov/organization/dscb/obtaining/available plates.htm. […] The stock solutions were prepared in dimethyl sulfoxide (DMSO, Sigma-Aldrich, St. Louis, MO, cat. D2650), except for the platinum compounds which were prepared in saline (Quality Biological, Gaithersburg, MD, cat. 114-055-101), at 800-fold the tested concentration and stored at -70 degrees C prior to their use. All drugs and investigational agents were tested over a range starting from a high concentration at or near the clinical Cmax and decreasing in half-log increments. If the clinical Cmax for an agent had not been determined, the highest concentration tested was 10 microM (Table 1).
Cell Culture. All cells were maintained in an incubator at 37 degrees C and 5% CO2 with 95% humidity. The PDC lines were cultured according to standard operating procedures established by the NCI PDMR (https://pdmr.cancer.gov). Briefly, all PDCs were thawed and cultured in Matrigel-coated flasks prepared with a working solution of 1X Ham's F-12 nutrient mix, without supplementation (Invitrogen, Waltham, MA, cat. 11765054), 100 U/mL penicillin-streptomycin (Invitrogen, cat. 15140122), and 2.5% Matrigel (Corning Inc., Corning, NY, cat. 354248) for the first three passages. All PDCs were cultured in complete DMEM/F-12 media containing advanced DMEM/F-12 (Invitrogen, cat. 12634028), 4.9% defined fetal bovine serum, heat inactivated (HyClone Laboratories Inc., Logan, UT, cat. SH30070.03HI), 389 ng/mL hydrocortisone (Sigma-Aldrich, cat. H4001), 9.7 ng/mL human EGF recombinant protein (Invitrogen, cat. PHG0313), 23.4 microg/mL adenine (Sigma-Aldrich, cat. A2786), 97.3 U/mL penicillin-streptomycin (Invitrogen, cat. 15140122), 1.9 mM L-glutamine (Invitrogen, cat. 25030081), and 9.7 microM Y-27632 dihydrochloride (Tocris Bioscience, Bristol, United Kingdom, cat. 1254). The PDCs were cultured in complete DMEM/F12 media without 10 microM Y-27632 dihydrochloride for at least two passages prior to the screen. The established cell lines NCI-H1341 and […] were cultured in DMEM/F-12, HEPES (Invitrogen, cat. 11330032), 5% defined fetal bovine serum (HyClone Laboratories Inc., cat. SH30070.03), ITS premix universal culture supplement [insulin (5 microg/mL), transferrin (5 microg/mL), and selenious acid (5 ng/mL)] […]

[1] = second compound 0.1 µM, first compound 0.0316 µM
[2] = second compound 0.1 µM, first compound 0.1 µM
[3] = second compound 0.1 µM, first compound 0.316 µM
[4] = second compound 0.1 µM, first compound 1 µM
[5] = second compound 0.1 µM, first compound 3.16 µM
[6] = second compound 0.1 µM, first compound 10 µM
[7] = second compound 0.316 µM, first compound 0.0316 µM
[8] = second compound 0.316 µM, first compound 0.1 µM
[9] = second compound 0.316 µM, first compound 0.316 µM
[10] = second compound 0.316 µM, first compound 1 µM
[11] = second compound 0.316 µM, first compound 3.16 µM
[12] = second compound 0.316 µM, first compound 10 µM
[13] = second compound 1 µM, first compound 0.0316 µM
[14] = second compound 1 µM, first compound 0.1 µM
[15] = second compound 1 µM, first compound 0.316 µM
[16] = second compound 1 µM, first compound 1 µM
[17] = second compound 1 µM, first compound 3.16 µM
[18] = second compound 1 µM, first compound 10 µM
[19] = second compound 3.16 µM, first compound 0.0316 µM
[20] = second compound 3.16 µM, first compound 0.1 µM
[21] = second compound 3.16 µM, first compound 0.316 µM
[22] = second compound 3.16 µM, first compound 1 µM
[23] = second compound 3.16 µM, first compound 3.16 µM
[24] = second compound 3.16 µM, first compound 10 µM
[25] = second compound 10 µM, first compound 0.0316 µM
[26] = second compound 10 µM, first compound 0.1 µM
[27] = second compound 10 µM, first compound 0.316 µM
[28] = second compound 10 µM, first compound 1 µM
[29] = second compound 10 µM, first compound 3.16 µM
[30] = second compound 10 µM, first compound 10 µM
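Throughout, for viability, T/C: compound exposure lasted 7 days; 100% = DMSO vehicle control growth.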

IC50 (second compound 0.1 µM) | IC50 (second compound 0.316 µM) | IC50 (second compound 1 µM) | IC50 (second compound 3.16 µM) | IC50 (second compound 10 µM) | SMILES | viability, T/C [1] | viability, T/C [2] | viability, T/C [3] | viability, T/C [4] | viability, T/C [5] | viability, T/C [6] | viability, T/C [7] | viability, T/C [8] | viability, T/C [9] | viability, T/C [10] | viability, T/C [11] | viability, T/C [12] | viability, T/C [13] | viability, T/C [14] | viability, T/C [15] | further results
> 10 µM | > 10 µM | > 10 µM | > 10 µM | > 10 µM | CC1(C)CCC(CN2CCN(c3ccc(C(=O)NS(=O)(=O)c4ccc(NCC5CCOCC5)c([N+](=O)[O-])c4)c(Oc4cnc5[nH]ccc5c4)c3)CC2)=C(c2ccc(Cl)cc2)C1 + CC(CO)NC(=O)c1cc(-c2ccc(Cl)cc2)nn(-c2cnn(C)c2)c1=O | 99.2% | 111% | 114% | 90.7% | 96.5% | 90.1% | 99.3% | 116% | 102% | 97.2% | 98.6% | 82.8% | 117% | 117% | 105% | viability, T/C [16]: 106%; viability, T/C [17]: 103%; viability, T/C [18]: 79.5%; viability, T/C [19]: 104%; viability, T/C [20]: 106%; viability, T/C [21]: 105%; viability, T/C [22]: 122%; viability, T/C [23]: 94%; viability, T/C [24]: 73%; viability, T/C [25]: 109%; viability, T/C [26]: 115%; viability, T/C [27]: 115%; viability, T/C [28]: 122%; viability, T/C [29]: 99%; viability, T/C [30]: 85.7%
> 10 µM | > 10 µM | > 10 µM | > 10 µM | > 10 µM | COc1cc(Nc2ncc3c(n2)-c2ccc(Cl)cc2C(c2c(F)cccc2OC)=NC3)ccc1C(=O)O + CC(CO)NC(=O)c1cc(-c2ccc(Cl)cc2)nn(-c2cnn(C)c2)c1=O | 86% | 70.6% | 66% | 66.5% | 61.3% | 52.6% | 88.8% | 73.4% | 59% | 62.2% | 55.2% | 49.4% | 95.7% | 69.3% | 73.4% | viability, T/C [16]: 64.9%; viability, T/C [17]: 55.8%; viability, T/C [18]: 49.5%; viability, T/C [19]: 79.9%; viability, T/C [20]: 71.2%; viability, T/C [21]: 70.2%; viability, T/C [22]: 65.7%; viability, T/C [23]: 54%; viability, T/C [24]: 60.9%; viability, T/C [25]: 88.5%; viability, T/C [26]: 80.8%; viability, T/C [27]: 66%; viability, T/C [28]: 71.3%; viability, T/C [29]: 56.7%; viability, T/C [30]: 55.1%
